What was measured:
A549 = experiment: Cytotoxicity against human A549 cells assessed as inhibition of cell growth at 20 uM incubated for 48 hrs by MTT assay; format: toxicity, cell-based; settings: a549, 48 h
MCF7 = experiment: Cytotoxicity against human MCF7 cells assessed as inhibition of cell growth at 20 uM incubated for 48 hrs by MTT assay; format: toxicity, cell-based; settings: mcf7, 48 h
HCT-116 = experiment: Cytotoxicity against human HCT-116 cells assessed as inhibition of cell growth at 20 uM incubated for 48 hrs by MTT assay; format: toxicity, cell-based; settings: hct-116, 48 h
HepG2 = experiment: Cytotoxicity against human HepG2 cells assessed as inhibition of cell growth at 20 uM incubated for 48 hrs by MTT assay; format: toxicity, cell-based; settings: hepg2, 48 h
HeLa = experiment: Cytotoxicity against human HeLa cells assessed as inhibition of cell growth at 20 uM incubated for 48 hrs by MTT assay; format: toxicity, cell-based
K562 = experiment: Cytotoxicity against human K562 cells assessed as inhibition of cell growth at 20 uM incubated for 48 hrs by MTT assay; format: toxicity, cell-based; settings: k562, 48 h
MKN-45 = experiment: Cytotoxicity against human MKN-45 cells assessed as inhibition of cell growth at 20 uM incubated for 48 hrs by MTT assay; format: toxicity, cell-based; settings: mkn-45, 48 h
CAL-62 = experiment: Cytotoxicity against human CAL-62 cells assessed as inhibition of cell growth at 20 uM incubated for 48 hrs by MTT assay; format: toxicity, cell-based; settings: cal-62, 48 h
5637 = experiment: Cytotoxicity against human 5637 cells assessed as inhibition of cell growth at 20 uM incubated for 48 hrs by MTT assay; format: toxicity, cell-based; settings: human, 5637, 48 h
RAW264.7 [1] = experiment: Cytotoxicity against mouse RAW264.7 cells assessed as inhibition of cell growth at 30 uM; format: toxicity, cell-based; settings: raw264.7, 30 µM
RAW264.7 [2] = experiment: Antiinflammatory activity in mouse RAW264.7 cells assessed as inhibition of LPS-induced NO production preincubated with compound for 30 mins followed by LPS-stimulation and measured after 24 hrs by Griess assay; format: functional, cell-based

`CC12CCCC34C5=C(CC(O[C@@H]3OC1)C24)C(=O)OC5` was tested, and the Activity (A549) was “Non-Toxic”, the Activity (MCF7) was “Non-Toxic” and the Activity (HCT-116) was “Non-Toxic”. The Activity (HepG2) was “Non-Toxic”, the Activity (HeLa) was “Non-Toxic” and the Activity (K562) was “Non-Toxic”. For the same compound, the Activity (MKN-45) was “Non-Toxic”, the Activity (CAL-62) was “Non-Toxic” and the Activity 5637 was “Non-Toxic”. The Activity (RAW264.7 [1]) was “Non-Toxic” and the IC50 (RAW264.7 [2]) was 22 µM.

In the case of `CC(=O)OC[C@@]1(C)CCC[C@]2(COC(C)=O)C3=C(C[C@@H](OC(=O)c4cccnc4)[C@@H]12)C(=O)OC3`, the Activity (A549) is reported as “Non-Toxic”, the Activity (MCF7) is reported as “Non-Toxic” and the Activity (HCT-116) is reported as “Non-Toxic”. The Activity (HepG2) was “Non-Toxic”, the Activity (HeLa) was “Non-Toxic” and the Activity (K562) was “Non-Toxic”. The Activity (MKN-45) was “Non-Toxic”, the Activity (CAL-62) was “Non-Toxic” and the Activity 5637 was “Non-Toxic”. For the same compound, the Activity (RAW264.7 [1]) was “Non-Toxic” and the IC50 (RAW264.7 [2]) was 19 µM.

In the case of `C[C@@H]1C[C@H]2[C@@H]3CCC4=CC(=O)C=C[C@]4(C)[C@@]3(F)[C@@H](O)C[C@]2(C)[C@@]1(O)C(=O)CO` [DEXAMETHASONE], the IC50 (RAW264.7 [2]) is reported as 2.6 µM.

In the case of `CC(=O)OC[C@]12CCCC(C)(C)[C@@H]1[C@H](OC(=O)c1ccccc1)CC1=C2COC1=O`, the Activity (A549) is reported as “Non-Toxic”, the Activity (MCF7) is reported as “Non-Toxic” and the Activity (HCT-116) is reported as “Non-Toxic”. For the same compound, the Activity (HepG2) was “Non-Toxic”, the Activity (HeLa) was “Non-Toxic” and the Activity (K562) was “Non-Toxic”. For the same compound, the Activity (MKN-45) was “Non-Toxic”, the Activity (CAL-62) was “Non-Toxic” and the Activity 5637 was “Non-Toxic”. The Activity (RAW264.7 [1]) was “Non-Toxic” and the IC50 (RAW264.7 [2]) was 6.8 µM.

For `C[C@]1(CO)CC[C@@H](O)[C@]2(C)C3=C(CC[C@@H]12)C(=O)OC3`, the Activity (A549) was “Non-Toxic”, the Activity (MCF7) was “Non-Toxic” and the Activity (HCT-116) was “Non-Toxic”. The Activity (HepG2) was “Non-Toxic”, the Activity (HeLa) was “Non-Toxic” and the Activity (K562) was “Non-Toxic”. For the same compound, the Activity (MKN-45) was “Non-Toxic”, the Activity (CAL-62) was “Non-Toxic” and the Activity 5637 was “Non-Toxic”. For the same compound, the Activity (RAW264.7 [1]) was “Non-Toxic” and the IC50 (RAW264.7 [2]) was 6.1 µM.

In the case of `C[C@]1(CO)CCC[C@]2(CO)C3=C(CC[C@@H]12)C(=O)OC3`, the Activity (A549) is reported as “Non-Toxic”, the Activity (MCF7) is reported as “Non-Toxic” and the Activity (HCT-116) is reported as “Non-Toxic”. For the same compound, the Activity (HepG2) was “Non-Toxic”, the Activity (HeLa) was “Non-Toxic” and the Activity (K562) was “Non-Toxic”. The Activity (MKN-45) was “Non-Toxic”, the Activity (CAL-62) was “Non-Toxic” and the Activity 5637 was “Non-Toxic”. The Activity (RAW264.7 [1]) was “Non-Toxic” and the IC50 (RAW264.7 [2]) was 21 µM.

From ChEMBL document CHEMBL5360594, “Astellolides R-W, Drimane-Type Sesquiterpenoids from an Aspergillus parasiticus Strain Associated with an Isopod” (J Nat Prod, 2023)
